Measurements as given in ChEMBL document CHEMBL4715854, “Discovery of Roblitinib (FGF401) as a Reversible-Covalent Inhibitor of the Kinase Activity of Fibroblast Growth Factor Receptor 4” (J Med Chem, 2020).
≈ marks a conversion by molar mass, not a printed value.

How the values were obtained:
[1] = Drug metabolism in human Caco-2 cells assessed as oxidation of aldehyde group at 10 uM incubated from 30 to 120 mins by LC-MS/MS analysis; format: ADME, cell-based; details: caco-2, 10 µM, time 30-120 min
[2] = Drug metabolism in human Caco-2 cells assessed as reduction of aldehyde group at 10 uM incubated from 30 to 120 mins by LC-MS/MS analysis; format: ADME, cell-based; details: caco-2, 10 µM, time 30-120 min
[3] = Drug metabolism in human liver microsome assessed as reduction of aldehyde group at 10 mM measured after 15 mins in presence of NADPH by LC-MS analysis; format: ADME; details: microsomes, 10000 µM
[4] = Permeability of the compound in human Caco-2 cells assessed as compound recovery at 10 uM measured after 2 hrs by LC/MS/MS analysis; format: ADME, cell-based; details: read-out: Drug recovery
[5] = Drug metabolism in human Caco-2 cells assessed as depletion of parent compound at 10 uM measured after 1 hr by LC-MS/MS analysis; format: ADME, cell-based; details: read-out: Drug degradation
[6] = Drug metabolism in rat liver microsome assessed as reduction of aldehyde group at 10 mM measured after 15 mins in presence of NADPH by LC-MS analysis; format: ADME; details: microsomes, 10000 µM
[7] = Clearance in Crl:CD (SD) rat at 1 mg/kg, iv or 3 mg/kg, po measured up to 24 hrs by LC-MS/MS analysis; format: ADME, organism-based; details: in vivo
[8] = Aqueous solubility of compound at pH 6.8; format: physicochemical; details: buffer, time 15 min
[9] = Thermodynamic solubility of compound in phosphate buffer at pH 6.8 measured after 15 mins by shake-flask method based LC-HRMS analysis; format: physicochemical; details: read-out: Therm_solubility
[10] = Dose normalized AUC in Crl:CD (SD) rat at 1 mg/kg, iv measured up to 24 hrs by LC-MS/MS analysis; format: ADME, organism-based; details: in vivo
[11] = Volume of distribution at steady state in Crl:CD (SD) rat at 1 mg/kg, iv or 3 mg/kg, po measured upto 24 hrs by LC-MS/MS analysis; format: ADME, organism-based; details: in vivo, read-out: Vdss
[12] = Oral bioavailability in Crl:CD (SD) rat at 3 mg/kg measured upto 24 hrs by LC-MS/MS analysis; format: ADME, organism-based; details: in vivo; for bioavailability: Crl:CD (SD)
[13] = Half-life in Crl:CD (SD) rat at 1 mg/kg, iv or 3 mg/kg, po measured upto 24 hrs by LC-MS/MS analysis; format: ADME, organism-based; details: in vivo
[14] = Oral bioavailability in Crl:CD (SD) rat at 3 mg/kg administered as nanosuspension formulated in CMC-5/Tween 80 measured up to 24 hrs by LC-MS/MS analysis; format: ADME, organism-based; details: in vivo
[15] = Dose normalized AUC in Crl:CD (SD) rat at 3 mg/kg, po measured up to 24 hrs by LC-MS/MS analysis; format: ADME, organism-based; details: in vivo
[16] = Lipophilicity, log D of the compound in 1-octanol at pH 7.4 by potentiometric titration method; format: physicochemical
[17] = Metabolic stability in rat liver S9 fraction at 1 uM assessed as parent compound remaining incubated for 60 mins by HPLC/MS analysis; format: ADME, subcellular; details: read-out: Stabilty
[18] = Drug metabolism in rat liver microsomes assessed as glucuronidation by measuring (2S,3S,4S,5R,6R)-6-((8-(5-cyanopyridin-2-ylcarbamoyl)-5,6,7,8-tetrahydro-1,8-naphthyridin-2-yl)methoxy)-3,4,5-trihydroxytetrahydro-2H-pyran-2-carboxylic acid metabolite formation incubated for 60 mins by HPLC/MS analysis; format: ADME, Microsome; details: 1 h
[19] = Metabolic stability in rat liver S9 fraction assessed as parent compound remaining at 1 uM incubated for 60 mins in presence of NADPH by HPLC/MS analysis; format: ADME, subcellular; details: read-out: Stabilty
[20] = Drug metabolism in rat blood assessed as reduction of aldehyde group measured at 1 uM within 1 hr by LC-MS/MS analysis; format: ADME, tissue-based; details: read-out: Drug metabolism
[21] = Metabolic stability in rat plasma assessed as parent compound remaining at 1 uM incubated for 60 mins by HPLC/MS analysis; format: ADME, cell-free; details: read-out: Stabilty
[22] = AUC in Crl:CD (SD) rat at 3 mg/kg, po measured upto 24 hrs by LC-MS/MS analysis; format: ADME, organism-based; set-up: route oral, dose 3 mg/kg, time <=24; details: in vivo
[23] = Metabolic stability in rat liver microsomes assessed as parent compound remaining incubated for 60 mins by HPLC/MS analysis; format: ADME, Microsome; details: read-out: Stabilty
[24] = Drug metabolism in rat feces assessed as reduction of aldehyde group measured after 20 hrs incubated under anaerobic condition measured by LC-MS analysis; format: ADME, tissue-based
[25] = AUC in Crl:CD (SD) rat at 1 mg/kg, iv formulated in PEG200/NMP measured upto 24 hrs by LC-MS/MS analysis; format: ADME, organism-based; set-up: route intravenous, dose 1 mg/kg, time <=24; details: in vivo
[26] = Metabolic stability in rat blood at 1 uM assessed as parent compound remaining incubated for 60 mins by HPLC/MS analysis; format: ADME, tissue-based; details: read-out: Stabilty
[27] = Drug metabolism in rat liver microsomes assessed as C-hydroxylation of THN mediated M3 metabolite formation incubated for 60 mins by HPLC/MS analysis; format: ADME, Microsome; details: 1 h
[28] = Drug metabolism in rat liver microsomes assessed as C-hydroxylation of THN mediated M2 metabolite formation incubated for 60 mins by HPLC/MS analysis; format: ADME, Microsome; details: 1 h
[29] = Plasma concentration in mouse xenografted with human RH41 cells at 30 mg/kg, po by LC-MS/MS analysis; format: ADME, organism-based; details: in vivo
[30] = Half-life in C57BL/6 mouse at 1 mg/kg, iv or 3 mg/kg, po measured upto 24 hrs by LC-MS/MS analysis; format: ADME, organism-based; details: in vivo
[31] = Clearance in C57BL/6 mouse at 1 mg/kg, iv or 3 mg/kg, po measured upto 24 hrs by LC-MS/MS analysis; format: ADME, organism-based; details: in vivo
[32] = Volume of distribution at steady state in C57BL/6 mouse at 1 mg/kg, iv or 3 mg/kg, po measured upto 24 hrs by LC-MS/MS analysis; format: ADME, organism-based; details: in vivo, read-out: Vdss
[33] = Oral bioavailability in C57BL/6 mouse at 3 mg/kg measured upto 24 hrs by LC-MS/MS analysis; format: ADME, organism-based; details: in vivo
[34] = Plasma concentration in mouse xenografted with human RH30 cells at 30 mg/kg, po by LC-MS/MS analysis; format: ADME, organism-based; details: in vivo

SMILES | Drug metabolism [3] | recovery at 2 h, 10 µM [4] [%] | Drug metabolism [6] | clearance [7] [mL/min/kg] | solubility thermodynamic at […] [9] [µM] | Vd [11] [L/kg] | half-life [13] [h] | further results
N#Cc1cnc(NC(=O)N2CCCc3ccc(C=O)nc32)nc1 | Metabolite_Detected | < 10 | Metabolite_Detected | – | – | – | – | Drug metabolism [1]: Metabolite_Detected; Drug metabolism [2]: Metabolite_Detected; metabolised at 1 h, 10 µM [5]: 80%
COC[C@H](C)Nc1cc(NC(=O)N2CCCc3cc(CN4CCN(C)CC4=O)c(C=O)nc32)ncc1C#N | – | – | – | 19 | – | – | – | –
CC(=O)N(C)Cc1cc2c(nc1C=O)N(C(=O)Nc1ccc(C#N)cn1)CCC2 | – | – | – | – | – | – | – | solubility at […] [8]: 18 µM (≈ 7.06 µg/mL)
O=Cc1ccc2cccc(C(=O)Nc3ccc(C(F)(F)F)cn3)c2n1 | – | – | – | – | < 2.9 | – | – | –
COCCNc1cc(NC(=O)N2CCCc3cc(-n4cnc(C)c4)c(C=O)nc32)ncc1C#N | Metabolite_Detected | < 10 | Metabolite_Detected | – | – | – | – | solubility at […] [8]: < 4 µM
COCCNc1cc(NC(=O)N2CCCc3cc(C(F)F)c(C=O)nc32)ncc1C#N | Metabolite_Detected | < 10 | Metabolite_Detected | 40 | < 6 | 4.7 | 2.3 | AUC/dose [10]: 964 nM·h; bioavailability [12]: 7%; bioavailability [14]: 80%; AUC/dose [15]: 774 nM·h
COC[C@@H](C)Nc1cc(NC(=O)N2CCCc3cc(CN4CCN(C)CC4=O)c(C=O)nc32)ncc1C#N | – | – | – | 35 | – | – | – | –
N#Cc1ccc(NC(=O)N2CCCc3ccc(C=O)nc32)nc1 | Metabolite_Detected | < 10 | Metabolite_Detected | 44 | – | 3.4 | 1.3 | logD [16]: 2.9; F ([12]; 3 mg/kg, 24 h): 4%; remaining at 1 h, 1 µM [17]: 61%; Drug metabolism [18]: Metabolite_Detected; remaining at 1 h, 1 µM [19]: 1%; metabolised at 1 h, 1 µM [20]: > 50%; remaining at 1 h, 1 µM [21]: 100%; AUC [22]: 0.054 µM·h; remaining at 1 h [23]: 7%; Drug metabolism [24]: Metabolite_Detected; AUC [25]: 1.232 µM·h; remaining at 1 h, 1 µM [26]: 22%; Drug metabolism [27]: Metabolite_Detected; Drug metabolism [28]: Metabolite_Detected
COCCOc1cc(NC(=O)N2CCCc3cc(CO)c(C=O)nc32)ncc1C#N | Metabolite_Detected | < 10 | Metabolite_Detected | 52 | 11 (≈ 4.53 µg/mL) | 2.5 | 2 | bioavailability [12]: 24%; AUC/dose [15]: 194 nM·h
COCCNc1cc(NC(=O)N2CCCc3cc(-c4cnc(C)s4)c(C=O)nc32)ncc1C#N | Metabolite_Detected | < 10 | Metabolite_Detected | 8 | < 6 | 1.5 | 3.5 | AUC/dose [10]: 4703 nM·h; bioavailability [12]: 46%; solubility at […] [8]: < 4 µM; AUC/dose [15]: 2174 nM·h
O=Cc1ccc2c(n1)N(C(=O)Nc1ccc(C(F)(F)F)cn1)CCC2 | Metabolite_Detected | < 10 | Metabolite_Detected | – | 4.9 (≈ 1.72 µg/mL) | – | – | logD [16]: 4.2
COCCNc1cc(NC(=O)N2CCCc3cc(CN(C)C(C)=O)c(C=O)nc32)ncc1C#N | – | – | – | 16 | 8 (≈ 3.72 µg/mL) | 8.6 | 27.7 | AUC/dose [10]: 2307 nM·h; bioavailability [12]: 26%; AUC/dose [15]: 599 nM·h
COCCNc1cc(NC(=O)N2CCCc3cc(CO)c(C=O)nc32)ncc1C#N | Metabolite_Detected | < 10 | Metabolite_Detected | – | – | – | – | concentration [29]: < 40 nM; half-life [30]: 0.8 h; clearance [31]: 77 mL/min/kg; Vd [32]: 1.6 L/kg; bioavailability [33]: 22%; concentration [34]: < 40 nM
N#Cc1ccc(NC(=O)N2CCCc3cc(CC(=O)O)c(C=O)nc32)nc1 | Metabolite_Detected | < 10 | Metabolite_Detected | – | – | – | – | –
COCCNc1cc(NC(=O)N(C)c2ccc(CN3CCN(C)CC3=O)c(C=O)n2)ncc1C#N | – | – | – | 88 | – | – | – | –
